The text below walks through data of patent US6432655B1, “Method of obtaining compositions” (Synaptic Pharmaceutical Corporation, priority 1992, dated 2002).

Experiment [1] concerns 5-HT receptors on NCB20 cells. Particulars: Berry-Kravis and Dawson, 1983; read-out: affinity of [3H]-5-HT; cited from earlier work.
The target of experiment [2] is 5-HT receptor present in glial membranes. Conditions: Fillion et al., 1980; property shared with hp78a; read-out: equilibrium dissociation constant Kd; cited from earlier work.
Experiment [3] concerns the target T1, human 5-HT4B receptor (Homo sapiens, UniProt P34969).
T1 construct: The entire coding region of the human 5-HT4B receptor (1338 bp); expressed in transfected cells
As to the kind of experiment: cAMP formation in intact, transiently transfected Cos-7 cells. The experiment is classed as cell-based. (In general: cAMP levels reflect the balance of adenylyl cyclase and phosphodiesterase activity.)

Experiment [4] has as its target T1, human 5-HT4B receptor. Put plainly: cell-based. The format is cell-based.
A further experiment has as its target human 5-HT1E receptor (Homo sapiens, UniProt P28566). Conditions: cited from earlier work.
The target of the next experiment is T2, human 5-HT1F receptor (Homo sapiens, UniProt P30939).
T2 sequence (P30939 1-366): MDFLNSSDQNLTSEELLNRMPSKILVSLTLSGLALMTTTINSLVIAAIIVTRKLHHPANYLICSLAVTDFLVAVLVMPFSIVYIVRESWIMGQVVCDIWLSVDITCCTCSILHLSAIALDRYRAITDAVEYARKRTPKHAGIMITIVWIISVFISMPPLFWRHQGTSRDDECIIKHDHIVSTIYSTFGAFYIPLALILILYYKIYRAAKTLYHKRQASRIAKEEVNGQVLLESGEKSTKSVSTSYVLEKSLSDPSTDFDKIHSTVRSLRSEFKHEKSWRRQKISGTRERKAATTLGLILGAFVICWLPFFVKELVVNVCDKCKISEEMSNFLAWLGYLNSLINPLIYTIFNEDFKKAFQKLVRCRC
Conditions: cited from earlier work.

SMILES strings stand for the structures.

T1 sequence (P34969 1-445 isoform P34969-2): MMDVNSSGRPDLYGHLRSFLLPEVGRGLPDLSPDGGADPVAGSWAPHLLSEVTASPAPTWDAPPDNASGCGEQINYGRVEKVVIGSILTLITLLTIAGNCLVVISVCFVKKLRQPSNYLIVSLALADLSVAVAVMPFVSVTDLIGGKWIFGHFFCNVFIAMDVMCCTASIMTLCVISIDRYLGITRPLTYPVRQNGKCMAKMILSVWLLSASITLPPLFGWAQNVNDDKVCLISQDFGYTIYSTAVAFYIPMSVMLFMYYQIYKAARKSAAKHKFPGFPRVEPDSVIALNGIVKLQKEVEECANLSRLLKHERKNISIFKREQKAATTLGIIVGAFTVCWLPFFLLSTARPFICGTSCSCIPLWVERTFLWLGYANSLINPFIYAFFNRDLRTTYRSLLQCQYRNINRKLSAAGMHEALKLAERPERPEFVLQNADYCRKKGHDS
Sequence of human 5-HT1E receptor (P28566 whole entry): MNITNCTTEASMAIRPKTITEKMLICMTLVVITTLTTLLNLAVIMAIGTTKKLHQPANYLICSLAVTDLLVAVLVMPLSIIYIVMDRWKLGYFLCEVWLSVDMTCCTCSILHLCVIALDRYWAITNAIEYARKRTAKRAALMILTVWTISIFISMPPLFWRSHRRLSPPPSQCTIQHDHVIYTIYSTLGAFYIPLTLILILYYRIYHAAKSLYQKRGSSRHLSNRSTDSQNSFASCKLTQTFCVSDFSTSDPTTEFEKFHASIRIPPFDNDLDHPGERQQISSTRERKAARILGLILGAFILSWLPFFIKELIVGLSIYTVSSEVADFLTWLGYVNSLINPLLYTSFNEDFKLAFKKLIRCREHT

For the molecule `NCCc1c[nH]c2ccc(O)cc12` [[^3H]5-HT], the results for the Kd in experiment [1] and in experiment [2] were ~200 nM and 10 nM, respectively.

In the case of `NCCc1c[nH]c2ccc(C(N)=O)cc12` [5-CT, 5-Carboxamidotryptamine], on human 5-HT4B receptor [3], the “agonist activity” value is “potent agonists”. Further, the “INTRINSIC ACTIVITY” value at human 5-HT4B receptor [4] is “AGONIST (key: AGONIST indicates that the maximal response to the drug was at least 80% of the maximum response obtained with 5-HT)”. Besides, the “functional character” value on human 5-HT4B receptor [4] was “potent agonists”. In addition, the Emax (in general, the maximal effect, on the per cent scale that the assay sets) at human 5-HT4B receptor [4] (L-M(TK-), read-out: Emax* (% 5-HT RESPONSE)) amounted to 110 ± 19%. Also, the Ki on human 5-HT1E receptor and at human 5-HT1F receptor was > 700 nM throughout.
